Reference: PubChem BioAssay AID192 (DTP/NCI, 2004)
“And” between values parts separate entries of the source, which are not always exact repeats. Equal entries are not always repeated. Toxic doses and inconclusive results are not listed.

Test system: BDF1 mice, B16 melanoma ip, median survival T/C
Experiment: NCI In Vivo Anticancer Drug Screen. Data for tumor model B16 Melanoma (intraperitoneal) in B6D2F1 (BDF1) mice
Conditions: endpoint: median survival time, schedule: Q01DX009 (ip), higher = longer survival
Summary of the method: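 Values are ratios of treated (T) to vehicle-control (C) measurements of survival or tumor size in tumor-bearing mice.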

[1] = dose: 3.12 mg/kg/injection, vehicle: saline
[2] = dose: 6.25 mg/kg/injection, vehicle: saline
[3] = dose: 12.5 mg/kg/injection, vehicle: saline
[4] = dose: 25.0 mg/kg/injection, vehicle: saline
[5] = dose: 50.0 mg/kg/injection, vehicle: Klucel (hydroxypropylcellulose) (HPC)
[6] = dose: 5.0 mg/kg/injection, vehicle: Klucel (hydroxypropylcellulose) (HPC)
[7] = dose: 10.0 mg/kg/injection, vehicle: Klucel (hydroxypropylcellulose) (HPC)
[8] = dose: 100.0 mg/kg/injection, vehicle: saline
[9] = dose: 25.0 mg/kg/injection, vehicle: saline with Tween-80
[10] = dose: 50.0 mg/kg/injection, vehicle: saline with Tween-80

In the case of `CC(=O)OCCN1CC1`, the T/C [1] is reported as 109 % of control, the T/C [2] is reported as 103 % of control and the T/C [3] is reported as 100 % of control. For the same molecule, the T/C [4] was 95 % of control.
With `CCCCCCCCCCCCCCCCS(=O)(=O)c1ccc(NN)cc1` the T/C [5] was 97 % of control and the T/C (dose: 200.0 mg/kg/injection, vehicle: Klucel (hydroxypropylcellulose) (HPC)) was 86 % of control and 88 % of control.
`CC(=O)Oc1ccccc1C(=O)O` was tested, and the T/C (dose: 15.7 mg/kg/injection, vehicle: saline with Tween-80) was 86 % of control, the T/C (dose: 31.3 mg/kg/injection, vehicle: saline with Tween-80) was 102 % of control and the T/C (dose: 62.5 mg/kg/injection, vehicle: saline with Tween-80) was 97 % of control.
`CN1C2CCC1CC(OC(c1ccccc1)c1ccccc1)C2` (stereo not given) was tested, and the T/C (dose: 1.56 mg/kg/injection, vehicle: saline) was 102 % of control, the T/C [1] was 107 % of control and the T/C [2] was 107 % of control. The T/C [3] was 110 % of control and the T/C [4] was 107 % of control.
For `N#CCCC1C2CCC(C2)C1C#N` (stereo not given), the T/C [6] was 112 % of control and the T/C [7] was 95 % of control.
In the case of `CC(=O)CCCc1ccccc1`, the T/C [8] is reported as 112 % of control, the T/C (dose: 200.0 mg/kg/injection, vehicle: saline) is reported as 116 % of control and the T/C (dose: 400.0 mg/kg/injection, vehicle: saline) is reported as 98 % of control.
For `CC(C)(C)c1ccc(C(=O)C2CC2)cc1`, the T/C [9] was 94 % of control, the T/C [10] was 99 % of control and the T/C (dose: 100.0 mg/kg/injection, vehicle: saline with Tween-80) was 95 % of control.
In the case of `CN(/N=N/c1nc[nH]c1C(N)=O)C1CCCCC1`, the T/C (dose: 50.0 mg/kg/injection, vehicle: carboxymethylcellulose (CMC)) is reported as 123 % of control.
`COC(=O)Nc1ccc(Cc2ccc(NC(=O)OC)cc2)cc1` was tested, and the T/C (dose: 6.25 mg/kg/injection, vehicle: saline with Tween-80) was 107 % of control, the T/C (dose: 12.5 mg/kg/injection, vehicle: saline with Tween-80) was 110 % of control and the T/C [9] was 112 % of control. The T/C [10] was 115 % of control.
In the case of `C1=NCCCN1`, the T/C [4] is reported as 114 % of control, the T/C (dose: 50.0 mg/kg/injection, vehicle: saline) is reported as 117 % of control and the T/C [8] is reported as 113 % of control.
In the case of `O=c1c2cccc3cccc(c32)c2nc3ccccc3n12`, the T/C (dose: 2.5 mg/kg/injection, vehicle: saline with Tween-80) is reported as 102 % of control and the T/C (dose: 5.0 mg/kg/injection, vehicle: saline with Tween-80) is reported as 114 % of control.
`COc1cc2c[n+](C)c3c4cc5c(cc4ccc3c2cc1OC)OCO5` (tested in a mixture with another compound) was tested, and the T/C (dose: 0.78 mg/kg/injection, vehicle: distilled water + Tween-80) was 105 % of control, the T/C (dose: 1.56 mg/kg/injection, vehicle: distilled water + Tween-80) was 97 % of control and the T/C (dose: 3.13 mg/kg/injection, vehicle: distilled water + Tween-80) was 118 % of control. The T/C (dose: 5.0 mg/kg/injection, vehicle: saline) was 116 % of control, the T/C (dose: 6.25 mg/kg/injection, vehicle: Klucel (hydroxypropylcellulose) (HPC)) was 110 % of control and the T/C (dose: 12.5 mg/kg/injection, vehicle: Klucel (hydroxypropylcellulose) (HPC)) was 124 % of control. For the same molecule, the T/C (dose: 25.0 mg/kg/injection, vehicle: Klucel (hydroxypropylcellulose) (HPC)) was 114 % of control, the T/C (dose: 40.0 mg/kg/injection, vehicle: saline) was 159 % of control and the T/C [5] was 92 % of control. The T/C (dose: 80.0 mg/kg/injection, vehicle: saline) was 98 % of control.
For `COc1cc2c(c(OC)c1OC)-c1cc3c(cc1[C@@H](OC(C)=O)[C@@H]1COC(=O)[C@H]1C2)OCO3`, the T/C (dose: 1.25 mg/kg/injection, vehicle: Klucel (hydroxypropylcellulose) (HPC)) was 104 % of control, the T/C (dose: 2.5 mg/kg/injection, vehicle: Klucel (hydroxypropylcellulose) (HPC)) was 94 % of control and the T/C [6] was 104 % of control. For the same molecule, the T/C [7] was 102 % of control.
In the case of `CC1=CC(=O)[C@@H](O)[C@]2(C)[C@H]3[C@@]4(O)OC[C@]35[C@H]([C@@H](C)[C@H]4O)[C@@H](O)C(=O)O[C@@H]5C[C@@H]12`, the T/C (dose: 0.75 mg/kg/injection, vehicle: saline) is reported as 107 % of control, the T/C (dose: 1.5 mg/kg/injection, vehicle: saline) is reported as 109 % of control and the T/C (dose: 3.0 mg/kg/injection, vehicle: saline) is reported as 117 % of control. For the same molecule, the T/C (dose: 6.0 mg/kg/injection, vehicle: saline) was 108 % of control.
